Test results published in paper PMC5014320, “Screen of Non-annotated Small Secreted Proteins of Pseudomonas syringae Reveals a Virulence Factor That Inhibits Tomato Immune Proteases” (PLoS Pathogens, 2016).
Counter-ions that a name gives are not always drawn.

Legend:
[1] = target: T1, papain (Carica papaya, UniProt P00784); assay: chromogenic protease assay, Lineweaver-Burk; format: biochemical; conditions: pH 6.8, 1 mM glutathione, 37 °C, 0.1-5 mM BAPNA
T1 construct: commercial purified papain (Sigma-Aldrich)
T1 sequence (P00784 134-345): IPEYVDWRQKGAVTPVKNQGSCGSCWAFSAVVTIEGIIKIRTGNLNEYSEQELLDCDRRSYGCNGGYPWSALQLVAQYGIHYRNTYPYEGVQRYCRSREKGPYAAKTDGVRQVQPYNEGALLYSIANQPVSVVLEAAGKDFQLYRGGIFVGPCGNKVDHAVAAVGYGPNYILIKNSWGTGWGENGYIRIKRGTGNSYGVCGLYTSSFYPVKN

[2] = target: papain (UniProt P00784); assay: enzyme inhibition kinetics (Lineweaver-Burk)

Molecule | chromogenic protease assay, Lineweaver-Burk [1] | Ki [2] [nM]
N=C(N)NCCC[C@H](NC(=O)c1ccccc1)C(=O)Nc1ccc([N+](=O)[O-])cc1 [BAPNA, Nα-Benzoyl-L-arginine 4-nitroanilide hydrochloride] | classical protease inhibition assays on purified papain using the chromogenic substrate BAPNA | 
C14-inhibiting protein-1 (Cip1), wild type (natural protein) |  | 3.98
